Article PMC5577582 (Toxins, 2017)
Positions of bridges follow the written chain, without caps; N, C: chain ends. Residues, ends and D or L forms follow the SMILES beside them.

Tests used:
[1] = type: physicochemical; settings: peptide 1 mg/mL in 9:1 v/v H2O/D2O, heated 20 to 80 °C, 500 MHz 1D 1H NMR
Experimental: A Bruker 500 MHz Avance nuclear magnetic resonance (NMR) spectrometer was used to heat the peptides (1 mg/mL in 9:1 v/v H2O/D2O) and to monitor structural changes at temperatures ranging from 20 to 80 °C. One-dimensional (1D) ^1H NMR spectra and two-dimensional (2D) nuclear Overhauser effect spectroscopy (NOESY) (200 ms mixing time) spectra were acquired and processed using TopSpin 3.5 (Bruker, Billerica, MA, USA) and CCPNMR Analysis 2.4.1 was used in the assignment of the NOE spectra.

[2] = 30 μM peptide, 24 h; for Degradation at pH 12: phosphate buffer pH 12, 37 °C, RP-HPLC trace compared to pH 4
[3] = type: physicochemical; settings: 100 °C in water for 30 min, heating block, cooled to 25 °C, C18 RP-HPLC at 215 nm, MALDI-MS of the products
[4] = phosphate buffer adjusted to pH 12; settings: 37 °C, up to 24 h
[5] = Human serum isolated from male AB plasma; settings: 37 °C, up to 24 h

Row | Compound | 1D 1H NMR spectral changes at 80 °C [1] | not cleaved [5] | also measured
1 | CC[C@H](C)[C@H](NC(=O)[C@H](CCC(=O)O)NC(=O)[C@H](Cc1ccc(O)cc1)NC(=O)[C@H](CCCCN)NC(=O)[C@@H]1CSSC[C@@H]2NC(=O)[C@H](CCC(N)=O)NC(=O)[C@H](CC(=O)O)NC(=O)[C@H](CC(N)=O)NC(=O)[C@H](CO)NC(=O)[C@@H]3CCCN3C(=O)[C@H](CC(N)=O)NC(=O)[C@@H]3CSSC[C@H](NC(=O)[C@H](C(C)C)NC(=O)[C@H](CC(C)C)NC(=O)[C@H](CC(N)=O)NC(=O)[C@H](CO)NC(=O)[C@H](CO)NC(=O)[C@H](CCCCN)NC(=O)[C@H](CSSC[C@H](NC(=O)[C@@H](N)CCC(=O)O)C(=O)N[C@@H](CC(C)C)C(=O)NCC(=O)N[C@@H](Cc4ccccc4)C(=O)NCC(=O)N[C@@H](CCCCN)C(=O)NCC(=O)N3)NC2=O)C(=O)N[C@@H](CO)C(=O)N[C@@H](CCCNC(=N)N)C(=O)N[C@@H](CCCCN)C(=O)N[C@@H](Cc2c[nH]cn2)C(=O)N[C@@H](CCCNC(=N)N)C(=O)N[C@@H](Cc2c[nH]c3ccccc23)C(=O)N1)C(N)=O [HnTx-IV] | peak broadening and loss of intensity | – | Degradation at pH 12 [2]: completely degraded
2 | CC[C@H](C)[C@H](NC(=O)[C@H](CCC(N)=O)NC(=O)[C@H](Cc1ccc(O)cc1)NC(=O)[C@H](CCCCN)NC(=O)[C@@H]1CSSC[C@@H]2NC(=O)[C@H](CCCCN)NC(=O)[C@H](CC(=O)O)NC(=O)[C@H](CC(N)=O)NC(=O)[C@H](CO)NC(=O)[C@@H]3CCCN3C(=O)[C@H](CC(N)=O)NC(=O)[C@@H]3CSSC[C@H](NC(=O)[C@H](C(C)C)NC(=O)[C@H](CC(C)C)NC(=O)[C@H](CC(N)=O)NC(=O)[C@@H]4CCCN4C(=O)[C@H](CCCNC(=N)N)NC(=O)[C@H](CSSC[C@H](NC(=O)[C@@H](N)CC(=O)O)C(=O)N[C@@H](CC(C)C)C(=O)NCC(=O)N[C@@H](Cc4ccccc4)C(=O)N[C@@H](CC(C)C)C(=O)N[C@@H](Cc4c[nH]c5ccccc45)C(=O)N[C@@H](CCCCN)C(=O)N3)NC2=O)C(=O)N[C@@H](CO)C(=O)N[C@@H](CCCNC(=N)N)C(=O)N[C@@H](CCCCN)C(=O)N[C@@H](CC(=O)O)C(=O)N[C@@H](CCCCN)C(=O)N[C@@H](Cc2c[nH]c3ccccc23)C(=O)N1)C(=O)O [PaurTx-3] (H-DCLGFLWKCNPSNDKCCRPNLVCSRKDKWCKYQI-OH; disulfide 2-17, 9-23, 16-30) | maintained narrow peaks but also showed some loss in intensity | – | Degradation at pH 12 [2]: larger proportion of the folded peptide remaining
3 | CC(C)C[C@@H]1NC(=O)[C@H](Cc2c[nH]cn2)NC(=O)[C@H](CCCCN)NC(=O)[C@@H]2CSSC[C@H](NC(=O)[C@@H](N)[C@@H](C)O)C(=O)N[C@@H](CCCNC(=N)N)C(=O)N[C@@H](Cc3ccc(O)cc3)C(=O)N[C@@H](CC(C)C)C(=O)N[C@@H](Cc3ccccc3)C(=O)NCC(=O)NCC(=O)N[C@H]3CSSC[C@H](NC(=O)[C@H](C)NC1=O)C(=O)N[C@@H](CCCNC(=N)N)C(=O)N[C@@H](CO)C(=O)N[C@@H](CC(=O)O)C(=O)NCC(=O)N[C@@H](CCCCN)C(=O)N[C@@H](Cc1ccc(O)cc1)C(=O)N[C@H](C(=O)N[C@@H](C)C(=O)N[C@@H](Cc1c[nH]c4ccccc14)C(=O)N[C@@H](CC(=O)O)C(=O)NCC(=O)N[C@H](C(=O)N[C@@H](Cc1ccccc1)C(=O)O)[C@@H](C)O)CSSC[C@H](NC(=O)[C@H](CC(=O)O)NC(=O)[C@H](C)NC(=O)[C@H]([C@@H](C)O)NC(=O)[C@H]([C@@H](C)O)NC(=O)[C@H](CCCCN)NC3=O)C(=O)N2 [SgTx-1] | peak broadening and loss of intensity | – | Mass loss of degradation product from native peptide after boiling: 18 Da; Analytical RP-HPLC trace after boiling [3]: minor degradation product; Loss of peptide at pH 2 ([2]; phosphate buffer pH 2, 37 °C, RP-HPLC relative to pH 4): small loss of peptide
4 | DCLGFLWKCNPSNDKCCRPNLVCSRKDKWCKYQI | – | more than 90% peptide remaining after a 24 h incubation | cleaved bond [4]: Q-Ile34, 24 h
5 | DCLGFMRKCIPDNDKCCRPNLVCSRTHKWCKYVF* | – | more than 90% peptide remaining after a 24 h incubation | –
6 | ECLEIFKACNPSNDQCCKSSKLVCSRKTRWCKYQI* | – | more than 90% peptide remaining after a 24 h incubation | –
7 | ECLGFGKGCNPSNDQCCKSSNLVCSRKHRWCKYEI* | – | more than 90% peptide remaining after a 24 h incubation | –
